{"source": "patent US12636270B2", "about": "“Levothyroxine liquid formulations” (Fresenius Kabi USA, LLC, priority 2016, dated 2026)", "conditions": "20 mcg/mL, tromethamine 10 mg/mL, normal saline", "method": "Separate samples containing levothyroxine sodium at a concentration of 20 mcg/mL, tromethamine at a concentration of 10 mg/mL in normal saline (0.9% NaCl in water) were adjusted to various pH levels. One sample additionally contained hydroxypropyl (HP) β-cyclodextrin at a concentration of 10 mg/mL. 5 mL of each sample was filled into 10 cc amber tubing vials, and the vials were stoppered with 20 mm stoppers under nitrogen. The samples were stored at temperatures of 25° C., 40° C. and 55° C. The samples stored at 55° C. were analyzed by HPLC at 1 and 4 weeks (W) of storage. The samples stored at 40° C. were analyzed by HPLC at 4 W and 3 months (M) of storage. The samples stored at 25° C. were analyzed by HPLC at 3M of storage.\nThe HPLC conditions were as follows: • Column: Waters […]™ C8 (5 μm, 4.6×150 mm) HPLC column • Mobile Phase A: Sodium heptanesulfonate/Acetonitrile/Water/Methanol/H3PO4 (4.023 g/800 mL/1600 mL/1600 mL/4 mL) • Mobile Phase B: Sodium heptanesulfonate/Acetonitrile/Water/Methanol/H3PO4 (2.013 g/1000 mL/100 mL/900 mL/2 mL) • Diluent: 0.01 N NaOH • Column temperature: 25° C. • Flow rate: 1.5 mL/min • Injection volume: 40-200 μL • Autosampler temperature: 5° C. • Detection: UV at 225 nm • Separation mode: Gradient Gradient Program: […]\nThe results for liothyronine, largest unknown impurity, and total impurities as determined by peak area percent are set forth in Table 1.", "key": {"[1]": {"conditions": "55° C., 1 W, pH 9, HP-β-cyclodextrin 10 mg/mL"}}, "note": "Read-outs that look alike come from different tables or passages of the source.", "data": [{"molecule": "N[C@@H](Cc1cc(I)c(Oc2cc(I)c(O)c(I)c2)c(I)c1)C(=O)[O-].[Na+]", "note": "[Levothyroxine Na, 4-(4-hydroxy-3,5-diiodophenoxy)-3,5-diiodo-L-phenylalanine sodium]", "values": [{"measurement": "% Liothyronine", "setting": "25° C., 3 M, pH 9.5", "result": 0.6, "unit": "%"}, {"measurement": "% largest unknown impurity", "setting": "25° C., 3 M, pH 9.5", "result": 0.46, "unit": "%"}, {"measurement": "% total impurities", "setting": "25° C., 3 M, pH 9.5", "result": 1.51, "unit": "%"}, {"measurement": "% Liothyronine", "setting": "25° C., 3 M, pH 10", "result": 0.35, "unit": "%"}, {"measurement": "% largest unknown impurity", "setting": "25° C., 3 M, pH 10", "result": 0.11, "unit": "%"}, {"measurement": "% total impurities", "setting": "25° C., 3 M, pH 10", "result": 0.71, "unit": "%"}, {"measurement": "% largest unknown impurity", "setting": "40° C., 3 M, pH 9.5", "result": 0.48, "unit": "%"}, {"measurement": "% total impurities", "setting": "40° C., 3 M, pH 9.5", "result": 2.66, "unit": "%"}, {"measurement": "% largest unknown impurity", "setting": "40° C., 3 M, pH 10", "result": 0.16, "unit": "%"}, {"measurement": "% total impurities", "setting": "40° C., 3 M, pH 10", "result": 1.35, "unit": "%"}, {"measurement": "% Liothyronine", "setting": "40° C., 4 W, pH 9.5", "result": 0.9, "unit": "%"}, {"measurement": "% largest unknown impurity", "setting": "40° C., 4 W, pH 9.5", "result": 0.12, "unit": "%"}, {"measurement": "% total impurities", "setting": "40° C., 4 W, pH 9.5", "result": 1.7, "unit": "%"}, {"measurement": "% Liothyronine", "setting": "40° C., 4 W, pH 10", "result": 0.4, "unit": "%"}, {"measurement": "% largest unknown impurity", "setting": "40° C., 4 W, pH 10", "result": 0.12, "unit": "%"}, {"measurement": "% total impurities", "setting": "40° C., 4 W, pH 10", "result": 0.6, "unit": "%"}, {"measurement": "% Liothyronine", "setting": "55° C., 1 W, pH 8", "result": 15.2, "unit": "%"}, {"measurement": "% largest unknown impurity", "setting": "55° C., 1 W, pH 8", "result": 1.59, "unit": "%"}, {"measurement": "% total impurities", "setting": "55° C., 1 W, pH 8", "result": 17.5, "unit": "%"}, {"measurement": "% Liothyronine", "setting": "[1]", "result": 2.7, "unit": "%"}, {"measurement": "% largest unknown impurity", "setting": "[1]", "result": 0.86, "unit": "%"}, {"measurement": "% total impurities", "setting": "[1]", "result": 4.0, "unit": "%"}, {"measurement": "% Liothyronine", "setting": "55° C., 1 W, pH 9", "result": 2.7, "unit": "%"}, {"measurement": "% largest unknown impurity", "setting": "55° C., 1 W, pH 9", "result": 0.67, "unit": "%"}, {"measurement": "% total impurities", "setting": "55° C., 1 W, pH 9", "result": 3.6, "unit": "%"}, {"measurement": "% Liothyronine", "setting": "55° C., 1 W, pH 9.5", "result": 1.2, "unit": "%"}, {"measurement": "% largest unknown impurity", "setting": "55° C., 1 W, pH 9.5", "result": 0.50, "unit": "%"}, {"measurement": "% total impurities", "setting": "55° C., 1 W, pH 9.5", "result": 2.2, "unit": "%"}, {"measurement": "% Liothyronine", "setting": "55° C., 1 W, pH 10", "result": 0.6, "unit": "%"}, {"measurement": "% largest unknown impurity", "setting": "55° C., 1 W, pH 10", "result": 0.27, "unit": "%"}, {"measurement": "% total impurities", "setting": "55° C., 1 W, pH 10", "result": 1.5, "unit": "%"}, {"measurement": "% largest unknown impurity", "setting": "55° C., 4 W, pH 9.5", "result": 0.09, "unit": "%"}, {"measurement": "% total impurities", "setting": "55° C., 4 W, pH 9.5", "result": 2.1, "unit": "%"}, {"measurement": "% Liothyronine", "setting": "55° C., 4 W, pH 10", "result": 3.1, "unit": "%"}, {"measurement": "% largest unknown impurity", "setting": "55° C., 4 W, pH 10", "result": 0.55, "unit": "%"}, {"measurement": "% total impurities", "setting": "55° C., 4 W, pH 10", "result": 4.2, "unit": "%"}]}]}
